Measured values published in US20230242654A1, “REAGENTS FOR EXPANDING CELLS EXPRESSING RECOMBINANT RECEPTORS” (Juno Therapeutics, Inc., priority 2017, published 2023).

Tests used:
[1] = test system: Healthy donor-or patient-derived CART cells; test: Cytokine production on BCMA or BCMA/PD-L1 conjugated beads; type: cell-based, human; details: 1 μM, in the presence of PD-L1; versus vehicle
Protocol: In another study, cells were cultured in the presence of BCMA beads generated as described in Example 1, with or without additional conjugation of human recombinant PD-L1-Fc. Healthy donor-or patient-derived CART cells were stimulated in the presence of BCMA-conjugated beads or BCMA/PD-L1 conjugated beads for 24 hours in the presence of 1 μM lenalidomide. Cytokine production was measured in the supernatant. […] The results were consistent with a conclusion that anti-BCMA CAR-T cytokine production following incubation with BCMA-conjugated beads was increased by lenalidomide in the presence of PD-L1-mediated inhibition.

anti-BCMA CAR+ T cells [2] = test: Cell count and CTV proliferation after BCMA-conjugated bead stimulation; type: cell-based, human; details: 5 μM lenalidomide
Protocol: (§1) Cryofrozen anti-BCMA CAR T cells, produced substantially as described in Example 2 and formulated at a 1:1 ratio of CD4+ and CD8+ T cells, were thawed. Unless otherwise indicated, beads (diameter about 4.5 μm) from a 5 μg/ml or 50 μg/ml BCMA-conjugated bead composition, generated as described in Example 1, were added to the wells at a ratio of T cells to beads of 1:2 in the presence or absence of 5 μM lenalidomide. Cells were incubated up to 14 days and analyzed at various time points for cytokine secretion, cell expansion by flow cytometry for the EGFRt surrogate marker, and for cytolytic activity.
Total cell count, monitored at day 4 (FIG. 9G) and day 7 (FIG. 9H), was increased following stimulation of anti-BCMA CAR+ T cells with beads from a 50 μg/mL BCMA-conjugated bead composition, but not 5 μg/mL BCMA-conjugated bead composition, compared to the cells present at the time of initiation of the incubation (dashed line).
To further assess proliferation, the cells containing anti-BCMA CAR-expressing T cells were labeled with the proliferation marker dye CELLTRACE VIOLET (CTV; ThermoFisher Scientific, Waltham Mass.) in accordance with the manufacturer's protocol prior to incubation with the BCMA-conjugated beads. Proliferation was assessed by dye dilution using flow cytometry on cells that were stimulated with beads from the 50 μg/mL BCMA-conjugated bead composition.

anti-BCMA CAR+ T cells [3] = test: Surface markers and proliferation at different T cell:bead ratios with or without lenalidomide; type: cell-based, human
Protocol: In another experiment, approximately 1.5×10^6 CAR+ T cells, prepared as described above, were added to wells of a 12-well plate and were incubated with beads from a 200 μg BCMA-conjugated bead composition at a ratio of CAR+ T cell to BCMA-conjugated bead of 1:0.3, 1:1 or 1:3 (approximately 0.5×10^6, 1.5×10^6, and 4.5×10^6 beads per well, respectively). As controls, 5 μg/mL anti-CD3 antibody was coated to wells (sub-optimal concentration for stimulation) or cells were seeded in the absence of any agent (no stimulation control). Each condition was incubated in the presence or absence of 5 μM lenalidomide. […] […] There also was a slight increase in PD-1 surface expression on CD8+ cells when stimulated with BCMA-conjugated beads at the higher BCMA bead concentration provided at the ratio of 1:3 CAR+ T cells to beads. The results are consistent with a finding that the BCMA concentration present during the incubation can differentially modulate surface marker expression on the CAR+ T cells.

anti-BCMA CAR+ T cells [4] = test: Expansion of EGFRt+ cells after BCMA-conjugated bead stimulation; type: cell-based, human; details: 5 μM lenalidomide
Protocol: as §1
Four days and seven days after addition of BCMA-conjugated beads, the incubated cells were stained with CD4 or CD8 and with an anti-EGFR antibody to determine the percentage of cells positive for EGFRt as a surrogate for CAR+ T cells. At the time of plating, 26% of the CD4+ cells expressed anti-BCMA CAR and 39% of the CD8+ cells expressed anti-BCMA CAR as determined by staining with BCMA-Fc. The percent of EGFRt+CD4+ T cells increased from about 26% at the initiation of the incubation to greater than 40% by day 4 (FIG. 9J) and greater than 60% by day 7 (FIG. 9K) when the cells were incubated in the presence of beads from a 50 μg/mL BCMA-conjugated bead composition. […]

RPMI-8226 target cells [5] = test: Cytolytic activity and IFN-gamma against target cells after bead incubation; type: cell-based
Protocol: Cytolytic activity of CAR+ T cells after incubation with BCMA-conjugated beads was assessed by incubation with the BCMA-expressing target cell line RPMI-8226, which is a BCMA+ multiple myeloma cell line. After seven days of incubation of anti-BCMA CAR+ T cells with BCMA-conjugated beads (5 μg/ml or 50 μg/ml) in the presence or absence of lenalidomide, the beads were removed from the cultures and the cells were plated with the RPMI-8226 target cells at a ratio of effector cells to target cells of 3:1 or 1:1 in the further presence or absence of 5 μM lenalidomide. To perform the cytolytic assay, the target RPMI-8226 cells were labeled with NucLight Red (NLR) to permit tracking of target cells by microscopy. Cytolytic activity was assessed by measuring the loss of viable target cells over a period of four days, as determined by red fluorescent signal (using the INCUCYTE® Live Cell Analysis System, Essen Bioscience). The number of viable cells was normalized to cells at day 0 prior to incubation with the RPMI-8226 target cells.
In a further exemplary study, anti-BCMA CAR+ T cells were untreated, or were incubated for 24 hours or for seven days with beads (diameter about 4.5 μm) from a 50 μg/mL BCMA-conjugated bead composition generated as described in Example 1 at a ratio of beads to cells of 1:1. The anti-BCMA CAR T+ cells were removed from the cultures and incubated with RPMI-8226 target cells at a 0.3:1 or 1:1 effector cell to target cell ratio. To assess cytokine response to the target cells after incubation with BCMA-conjugated beads, IFN gamma levels were measured in the supernatant.

anti-BCMA CAR T cells [6] = test: Cytokine production after 24 hours BCMA bead stimulation with or without lenalidomide; type: cell-based, human
Protocol: In another study, recombinant human BCMA-conjugated beads were used to stimulate CAR T cells at various concentrations to titrate the magnitude of stimulation, either low ([…]), medium ([…]), and high (200 μg/mL) stimulation. […] Cells were stimulated with BCMA conjugated beads for 24 hours in the presence of 0.1 μM or 1.0 μM lenalidomide, or vehicle control. A protein transport inhibitor was added in the final hours of incubation, and cells were stained for intracellular IL-2, IFN-γ, and TNF-α.

anti-BCMA CAR T cells [7] = test: Cytokines in culture supernatant 24 hours after addition of BCMA-conjugated beads; type: cell-based, human
Protocol: as §1
Twenty four hours after addition of BCMA-conjugated beads, the presence of TNF-α, IFNγ, and IL-2 in culture supernatants was assessed.
In a further exemplary study, two different anti-BCMA CAR T cell compositions were generated from different donors, each containing T cells expressing the same anti-BCMA CAR. The cells were thawed and incubated with beads (diameter about 4.5 μm) from a 5 μg/mL or 200 μg/mL BCMA-conjugated bead composition generated as described in Example 1. The incubation was carried out at a ratio of T cells to beads of 1:1 in the presence or absence of 1 μM or 5 μM lenalidomide. Twenty four hours after addition of BCMA-conjugated beads, IL-2 production by the anti-BCMA CAR+ T cells was assessed in culture supernatants.

Anti-BCMA CAR-T cells = test: Phenotype of anti-BCMA CAR T cells stimulated 7 days on BCMA beads with or without lenalidomide; type: cell-based, human
Protocol: (§2) Anti-BCMA CAR-T cells, generated from samples from representative healthy donors or multiple myeloma patient derived material, and cultured with 50 μg/mL BCMA-Fc conjugated beads (generated as described in Example 1) at a ratio of 1:1 bead:CAR+ T cell for 7 days, in the presence of […] lenalidomide or a vehicle control. Expression of CD25, PD-1, Tim3 and Lag3 on CAR T cells (using an antibody for surrogate CAR marker) cultured under the different conditions then was assessed by flow cytometry.

RPMI-8226 target cells [8] = test: Cytolytic activity and cytokine production of bead-prestimulated CAR-T cells on target cells; type: cell-based
Protocol: as §2
Specifically, for pretreated cells in which pretreatment had been conducted in the presence of lenalidomide, the cells were cultured with the target cells in the presence of lenalidomide; likewise, for pretreated cells in which pretreatment had been conducted in the presence of vehicle, cells were cultured with the target cells in the presence of vehicle. Following the co-culture, cytolytic activity was assessed by measuring the loss of viable target cells over a period of seven days, as determined by red fluorescent signal. Percentage killing was normalized to anti-BCMA CAR T cells prestimulated on beads in the presence of vehicle. Cytokine production was assessed by ELISA from supernatant following culture with target cells for 24 hours. Experiments were performed twice in 3 donors. […]

RPMI-8226 = test: Serial restimulation with BCMA-conjugated beads, then cytolytic activity; type: cell-based
Protocol: Anti-BCMA CAR T cell compositions were generated from three different donors, each containing T cells expressing the same anti-BCMA CAR, thawed, and were incubated for seven days with beads (diameter about 4.5 μm) from a 50 μg/mL BCMA-conjugated bead composition generated as described in Example 1 at a 1:1 ratio of beads to cells. The incubation was carried out in the presence of 5 μM lenalidomide or in the absence of lenalidomide (vehicle control). Cells were harvested after 7 days and replated for three further rounds up to 28 days, each round involving resetting to initial seeding density and incubating for an additional 7 days in the presence of the same concentration of lenalidomide.
At each reset after the pretreatment, cytolytic activity was assessed by incubation with the BCMA-expressing target cell line RPMI-8226 (labeled with NucLight Red (NLR)) at an effector to target cell (E:T) ratio of 1:1 in the further presence of or absence of lenalidomide. Cytolytic activity was assessed by measuring the loss of viable target cells over a period of up to 80-150 hours, as determined by red fluorescent signal (using the IncuCyte® Live Cell Analysis System, Essen Bioscience). Cells from each condition were plated in triplicate. The % cell killing compared to vehicle only control (set at 100%) was determined.

[9] = medium stimulation (50 μg BCMA beads), 24 hours, 1 μM

Structure (SMILES): Nc1cccc2c1CN(C1CCC(=O)NC1=O)C2=O (stereo not shown) [lenalidomide]
- secreted cytokine levels [1]: potentiated secreted cytokine levels
- proliferation (cell count) (anti-BCMA CAR+ T cells [2]; 50 ug beads, day 7): small increase in proliferation
- proliferation as assessed by CTV dilution (anti-BCMA CAR+ T cells [2]; 50 μg/mL beads, day 4 but not day 7): slight delay in proliferation
- proliferative capacity of T cells (CTV) (anti-BCMA CAR+ T cells [3]; 5 μM, three days with 200 μg BCMA beads at 1:1, versus vehicle): increased the proliferative capacity of T cells
- surface expression of CD25 in CD4+ and CD8+ T cells (anti-BCMA CAR+ T cells [3]; lenalidomide present during BCMA bead or anti-CD3 stimulation): further increased the extent of surface expression of CD25
- extent of CAR+ T cell expansion (anti-BCMA CAR+ T cells [4]): did not substantially impact the extent of CAR+ T cell expansion
- target cell viability (RPMI-8226 target cells [5]; RPMI 8226 cells cultured in the presence of lenalidomide, no T cells): did not directly influence target cell viability
- cytolytic activity of the CAR+ T cells (RPMI-8226 target cells [5]; lenalidomide during the seven day bead incubation prior to the killing assay): increased cytolytic activity of the CAR+ T cells
- killing activity (RPMI-8226 target cells [5]; lenalidomide present during the cell killing assay): did not substantially affect killing activity
- percentage of IFN-γ+ and TNF-α+ intracellular staining (anti-BCMA CAR T cells [6]; 0.1 μM or 1.0 μM, all stimulation levels, CD4+ and CD8+): increased the percentage
- percentage of IL-2+ CAR+ T cells (anti-BCMA CAR T cells [6]; 5-μg stimulation): increasing the percentage
- percentage of IL-2+ CAR+ T cells (anti-BCMA CAR T cells [6]; 50-μg and 200-μg stimulation): decreasing the percentage
- CAR T cytokine production (anti-BCMA CAR T cells [6]; absence of stimulation): had no effect on CAR T cytokine production
- increase in IL-2 concentration compared with vehicle control (anti-BCMA CAR T cells [6]; [9]): 200%
- increase in TNF-α concentration compared with vehicle control (anti-BCMA CAR T cells [6]; [9]): 200%
- IFN-γ concentration compared with vehicle control (anti-BCMA CAR T cells [6]; medium stimulation, 24 hours): donor-dependent increases
- cytokine (IL-2) production (anti-BCMA CAR T cells [7]; 1 μM or 5 μM, 200 or 5 μg/mL beads): increased cytokine production in the presence of both the high and low antigen stimulation
- BCMA-induced CAR+ T cell cytokine production (anti-BCMA CAR T cells [7]; 5 μM lenalidomide, 24 hours): increased BCMA-induced CAR+ T cell cytokine production
- CAR+ viability (Anti-BCMA CAR-T cells; 1 μM, 7 days on 50 μg/mL BCMA beads, 3 healthy donors): significantly increased CAR+ viability
- surface CD25 expression (MFI) (Anti-BCMA CAR-T cells; 1 μM, 7 days on BCMA beads): increasing CD25 expression
- surface PD-1 expression (MFI) (Anti-BCMA CAR-T cells; 1 μM, 7 days on BCMA beads): reduced PD-1 expression
- total cell count (Anti-BCMA CAR-T cells; 1 μM, 7 days on BCMA beads): did not alter the total cell count
- percentage positive for Lag3 expression (Anti-BCMA CAR-T cells; CD4+ and CD8+ CAR+ populations): increased
- percentage of PD-1+ cells (Anti-BCMA CAR-T cells; CD4+ population): decrease in the percentage of PD-1+ cells
- surface expression of Tim3 (Anti-BCMA CAR-T cells; CD8+ population): increased the surface expression of Tim3
- percentage CAR+ (Anti-BCMA CAR-T cells; vehicle- versus lenalidomide-treated): no significant differences
- cytokine production (RPMI-8226 target cells [8]; 1 μM lenalidomide during prestimulation versus vehicle): trend toward increased cytokine production
- cytolytic function (RPMI-8226 target cells [8]; 1 μM lenalidomide during the prestimulation period): preserved cytolytic function
- killing efficacy (RPMI-8226; further donor (FIG. 10B), all time points): increased killing efficacy
- cytolytic activity (RPMI-8226; preincubated with 5 μM lenalidomide 7 or 14 days, exemplary donor): exhibited greater cytolytic activity
- killing efficacy (RPMI-8226; preincubated with lenalidomide 14 or 21 days compared to day 7): overall decrease in killing efficacy
